Series [1] has as its system PSMA-positive LNCaP cells. Nature of the series: Surface binding and internalization of 68Ga-labeled compounds. The series is classed as cell-based, human. Conditions: for Internalization Block / Surface Binding Block / Internalization / Surface Binding: 30 nM, 45 min, 37 °C; for Internalization Block / Surface Binding Block: blocked with 2-PMPA 500 µM; for Internalization / Surface Binding: unblocked; for Specific Internalization / Specific Surface Binding: difference of unblocked and blocked values. The method, then:
The PSMA-positive human cell line LNCaP (human lymph node carcinoma of the prostate; ATCC CRL-1740) was cultivated adherently at 37 °C and humidified 5% CO2 with RPMI-1640 (Thermo Fisher Scientific, Germany) supplemented with 10% fetal bovine serum (Sigma-Aldrich, Germany), 1% sodium pyruvate (Life Technologies, Germany) and 1% penicillin/[…] (Thermo Fisher Scientific, Germany). A mixture of trypsin/ethylenediaminetetraacetic acid (0.05% / 0.02%; Thermo Fisher Scientific, Germany) was used for cell harvesting (last authentication: April 2024).
Internalization assays were performed on poly-L-lysine coated 24-well cell culture plates. The day before the experiment, LNCaP cells (10^5 cells/well) were harvested and seeded to the wells. The cells were incubated with the ^68Ga-labeled compounds (250 µl, 30 nM, diluted in RPMI medium) for 45 min at 37 °C. […] The medium was then removed and the cells washed with ice-cold PBS buffer (3 × 1 ml). To remove surface bound compounds, ice-cold glycine buffer (2 × 0.5 ml, 50 mM, pH 2.8) was added to the wells and collected after 5 min in a combined fraction. After washing once with PBS (1 ml), NaOH (0.5 ml, 0.3 M) was added to the cells for lysation. Collected surface-bound, internalized fractions and standards from the stock solutions (25 µl) were measured in a γ-counter. Data was normalized and presented as percentage of the initially added radioactivity bound to 10^5 cells [%IA/10^5 cells].

Series [2] is described as follows: Partition coefficient (logD), n-octanol/PBS pH 7.4. The series is classed as physicochemical. The note with it: 68Ga-labeled compounds, mean ± SD, read-out: Partition Coefficient [logDoctanol/PBS]. The method, then: To determine the lipophilicity expressed as distribution coefficient (logD), a two-phase system of n-octanol (500 µl) and phosphate buffered saline (PBS) (490 µl) at pH 7.4 was used (n = 4). Compounds were radiolabeled with [^68Ga]Ga^3+ and the mixture diluted to a concentration of 0.25 µM in PBS. 10 µl of the 0.25 µM dilution were added to the n-octanol / PBS mixture. After extensive mixing, the 2-phase system was centrifuged for 10 min at 14,000 rpm and 4 °C. Two samples from each phase (100 µl) were taken and measured in a γ-gamma counter (PerkinElmer, Waltham, USA). […] The data is presented as the mean value with the standard deviation (SD).

Another series is described as follows: in vivo. The note with it: male, BALB/c nu/nu, mouse, iv, 500 pmol, total radioactivity.

Molecules are shown by their SMILES. Non-standard residues stand in square brackets, D forms with d. Residues, ends and D or L forms follow the SMILES beside them. *: point of attachment. DOTA = O=C(O)CN1CCN(CC(=O)O)CCN(CC(=O)*)CCN(CC(=O)O)CC1; EuK = O=C(O)CC[C@H](NC(=O)N[C@@H](CCCCN*)C(=O)O)C(=O)O; 2Nal = N[C@@H](Cc1ccc2ccccc2c1)C(=O)O; Trx = NC[C@H]1CC[C@H](C(=O)O)CC1

This is an account of results in paper PMC12775819, “Optimizing PSMA-617-based inhibitors through charged linker modifications: Insights into structure-activity relationships” (Theranostics, 2026).

On to `O=C(O)CC[C@H](NC(=O)N[C@@H](CCCCNC(=O)[C@H](Cc1c[nH]cn1)NC(=O)[C@H](CCC(=O)O)NC(=O)[C@H](Cc1c[nH]cn1)NC(=O)[C@H](CCC(=O)O)NC(=O)[C@H](Cc1c[nH]cn1)NC(=O)[C@H](CCC(=O)O)NC(=O)[C@H](Cc1ccc2ccccc2c1)NC(=O)[C@H]1CC[C@H](CNC(=O)CN2CCN(CC(=O)O)CCN(CC(=O)O)CCN(CC(=O)O)CC2)CC1)C(=O)O)C(=O)O` [PS1, EuK-(HE)3-NaI-ChX-DOTA] ({DOTA-Trx}-[2Nal]EHEHEH-EuK), for which, in series [1], the “Internalization Block” value is reported as 0.314 ± 0.024 %Binding / %Internalization, the “Surface Binding Block” value is recorded as 0.069 ± 0.012 %Binding / %Internalization, the Internalization is reported as 0.66 ± 0.14 %Binding / %Internalization and the “Surface Binding” value is given as 1.15 ± 0.17 %Binding / %Internalization. In series [1], the “Specific Internalization” value is listed as 0.35 ± 0.3 %Binding / %Internalization and the “Specific Surface Binding” value is on record as 1.09 ± 0.34 %Binding / %Internalization. The logD in series [2] is -3.5 ± 0.2. Also, in the series “in vivo” (SUV kidneys), the SUV at 1 h was 1.71 ± 0.2 SUV and the SUV at 2 h was found to be 1.32 ± 0.15 SUV. In “in vivo” (SUV muscle), the SUV at 1 h was 0.09 ± 0.01 SUV and the SUV at 2 h is 0.08 ± 0.02 SUV. In “in vivo” (SUV tumor), the SUV at 1 h came out at 0.43 ± 0.06 SUV and the SUV at 2 h was 0.3 ± 0.11 SUV.

Turning to `O=C(O)CC[C@H](NC(=O)N[C@@H](CCCCNC(=O)[C@H](Cc1ccc2ccccc2c1)NC(=O)[C@H](Cc1c[nH]cn1)NC(=O)[C@H](CCC(=O)O)NC(=O)[C@H](Cc1c[nH]cn1)NC(=O)[C@H](CCC(=O)O)NC(=O)[C@H](Cc1c[nH]cn1)NC(=O)[C@H](CCC(=O)O)NC(=O)[C@H]1CC[C@H](CNC(=O)CN2CCN(CC(=O)O)CCN(CC(=O)O)CCN(CC(=O)O)CC2)CC1)C(=O)O)C(=O)O` [PS2, EuK-NaI-(HE)3-ChX-DOTA] ({DOTA-Trx}-EHEHEH[2Nal]-EuK), in series [1], the “Internalization Block” value was 0.21 ± 0.036 %Binding / %Internalization, the “Surface Binding Block” value is given as 0.183 ± 0.024 %Binding / %Internalization, the Internalization is on record as 0.55 ± 0.04 %Binding / %Internalization and the “Surface Binding” value is listed as 1.01 ± 0.14 %Binding / %Internalization. In series [1], the “Specific Internalization” value is recorded as 0.34 ± 0.24 %Binding / %Internalization and the “Specific Surface Binding” value is on record as 0.83 ± 0.27 %Binding / %Internalization. Moreover, in series [2], the logD was -3.4 ± 0.3. Also, in the series “in vivo” (SUV kidneys), the SUV at 1 h came out at 1.64 ± 0.1 SUV and the SUV at 2 h is 1.01 ± 0.09 SUV. Besides, in “in vivo” (SUV muscle), the SUV at 1 h was determined as 0.11 ± 0.02 SUV and the SUV at 2 h amounted to 0.11 ± 0.01 SUV. In the series “in vivo” (SUV tumor), the SUV at 1 h stood at 0.78 ± 0.05 SUV and the SUV at 2 h worked out at 0.74 ± 0.06 SUV.

For the molecule `O=C(O)CC[C@H](NC(=O)N[C@@H](CCCCNC(=O)[C@H](Cc1ccc2ccccc2c1)NC(=O)[C@H](Cc1c[nH]cn1)NC(=O)[C@H](Cc1c[nH]cn1)NC(=O)[C@H](Cc1c[nH]cn1)NC(=O)[C@H]1CC[C@H](CNC(=O)CN2CCN(CC(=O)O)CCN(CC(=O)O)CCN(CC(=O)O)CC2)CC1)C(=O)O)C(=O)O` [PS10, EuK-NaI-H3-ChX-DOTA] ({DOTA-Trx}-HHH[2Nal]-EuK), the logD in series [2] was -3.7 ± 0.6. Besides, the SUV at 1 h in “in vivo” (SUV kidneys) turned out to be 8.13 ± 1.31 SUV; in “in vivo” (SUV muscle), 0.21 ± 0.03 SUV; in the series “in vivo” (SUV tumor), 0.65 ± 0.04 SUV. Moreover, the SUV at 2 h in the series “in vivo” (SUV kidneys) stood at 1.09 ± 0.06 SUV; in the series “in vivo” (SUV muscle), 0.06 ± 0.02 SUV; in “in vivo” (SUV tumor), 0.37 ± 0.05 SUV.

As for `O=C(O)CC[C@H](NC(=O)N[C@@H](CCCCNC(=O)[C@H](Cc1ccc2ccccc2c1)NC(=O)[C@H]1CC[C@H](CNC(=O)[C@H](CCC(=O)O)NC(=O)[C@H](CCC(=O)O)NC(=O)[C@H](CCC(=O)O)NC(=O)CN2CCN(CC(=O)O)CCN(CC(=O)O)CCN(CC(=O)O)CC2)CC1)C(=O)O)C(=O)O` [PS8, EuK-NaI-ChX-E3-DOTA] ({DOTA}-EEE[Trx][2Nal]-EuK), in series [2], the logD was -3 ± 0.1. In addition, the SUV at 1 h in the series “in vivo” (SUV kidneys) turned out to be 3.89 ± 0.65 SUV; in the series “in vivo” (SUV muscle), 0.08 ± 0.02 SUV; in the series “in vivo” (SUV tumor), 1.32 ± 0.08 SUV. Besides, the values for the SUV at 2 h in “in vivo” (SUV kidneys), in the series “in vivo” (SUV muscle) and in the series “in vivo” (SUV tumor) were 2.7 ± 0.89 SUV, 0.11 ± 0.02 SUV and 0.86 ± 0.39 SUV, respectively.

As for `O=C(O)CC[C@H](NC(=O)N[C@@H](CCCCNC(=O)[C@H](Cc1ccc2ccccc2c1)NC(=O)[C@H](CCC(=O)O)NC(=O)[C@H](CCC(=O)O)NC(=O)[C@H](CCC(=O)O)NC(=O)[C@H]1CC[C@H](CNC(=O)CN2CCN(CC(=O)O)CCN(CC(=O)O)CCN(CC(=O)O)CC2)CC1)C(=O)O)C(=O)O` [PS7, EuK-NaI-E3-ChX-DOTA] ({DOTA-Trx}-EEE[2Nal]-EuK), the logD in series [2] was -3.3 ± 0.1. The values for the SUV at 1 h in “in vivo” (SUV kidneys), in “in vivo” (SUV muscle) and in “in vivo” (SUV tumor) were 1.6 ± 0.12 SUV, 0.09 ± 0.01 SUV and 0.71 ± 0.05 SUV, respectively. In addition, the figures for the SUV at 2 h in “in vivo” (SUV kidneys), in “in vivo” (SUV muscle) and in “in vivo” (SUV tumor) were 0.59 ± 0.06 SUV, 0.12 ± 0.02 SUV and 0.56 ± 0.08 SUV, respectively.

As to `O=C(O)CC[C@H](NC(=O)N[C@@H](CCCCNC(=O)[C@H](CCC(=O)O)NC(=O)[C@H](CCC(=O)O)NC(=O)[C@H](CCC(=O)O)NC(=O)[C@H](Cc1ccc2ccccc2c1)NC(=O)[C@H]1CC[C@H](CNC(=O)CN2CCN(CC(=O)O)CCN(CC(=O)O)CCN(CC(=O)O)CC2)CC1)C(=O)O)C(=O)O` [PS6, EuK-E3-NaI-ChX-DOTA] ({DOTA-Trx}-[2Nal]EEE-EuK), the logD in series [2] was -3.1 ± 0.3. For the same molecule, the results for the SUV at 1 h in “in vivo” (SUV kidneys), in the series “in vivo” (SUV muscle) and in “in vivo” (SUV tumor) were 1.53 ± 0.08 SUV, 0.11 ± 0.02 SUV and 0.69 ± 0.07 SUV, respectively. Moreover, the SUV at 2 h amounted to 0.4 ± 0.05 SUV in “in vivo” (SUV kidneys), 0.11 ± 0.02 SUV in the series “in vivo” (SUV muscle) and 0.85 ± 0.08 SUV in “in vivo” (SUV tumor).

For `O=C(O)CC[C@H](NC(=O)N[C@@H](CCCCNC(=O)[C@H](Cc1ccc2ccccc2c1)NC(=O)[C@H]1CC[C@H](CNC(=O)[C@H](Cc2c[nH]cn2)NC(=O)[C@H](Cc2c[nH]cn2)NC(=O)[C@H](Cc2c[nH]cn2)NC(=O)CN2CCN(CC(=O)O)CCN(CC(=O)O)CCN(CC(=O)O)CC2)CC1)C(=O)O)C(=O)O` [PS11, EuK-NaI-ChX-H3-DOTA] ({DOTA}-HHH[Trx][2Nal]-EuK), in series [2], the logD is -3.6 ± 0.1. In addition, the SUV at 1 h in the series “in vivo” (SUV kidneys) amounted to 1.24 ± 0.08 SUV; in the series “in vivo” (SUV muscle), 0.11 ± 0.02 SUV; in the series “in vivo” (SUV tumor), 0.82 ± 0.07 SUV. Further, the SUV at 2 h is 0.77 ± 0.13 SUV in the series “in vivo” (SUV kidneys), 0.1 ± 0.03 SUV in the series “in vivo” (SUV muscle) and 0.88 ± 0.09 SUV in the series “in vivo” (SUV tumor).

As for `O=C(O)CC[C@H](NC(=O)N[C@@H](CCCCNC(=O)[C@H](Cc1c[nH]cn1)NC(=O)[C@H](Cc1c[nH]cn1)NC(=O)[C@H](Cc1c[nH]cn1)NC(=O)[C@H](Cc1ccc2ccccc2c1)NC(=O)[C@H]1CC[C@H](CNC(=O)CN2CCN(CC(=O)O)CCN(CC(=O)O)CCN(CC(=O)O)CC2)CC1)C(=O)O)C(=O)O` [PS9, EuK-H3-NaI-ChX-DOTA] ({DOTA-Trx}-[2Nal]HHH-EuK), the logD in series [2] is -3.2 ± 0.1. Also, the figures for the SUV at 1 h in the series “in vivo” (SUV kidneys), in the series “in vivo” (SUV muscle) and in “in vivo” (SUV tumor) were 0.98 ± 0.09 SUV, 0.082 ± 0.002 SUV and 0.21 ± 0.05 SUV, respectively. Further, the results for the SUV at 2 h in “in vivo” (SUV kidneys), in “in vivo” (SUV muscle) and in “in vivo” (SUV tumor) were 0.74 ± 0.09 SUV, 0.07 ± 0.03 SUV and 0.12 ± 0.03 SUV, respectively.

Take `O=C(O)CC[C@H](NC(=O)N[C@@H](CCCCNC(=O)[C@H](CCC(=O)O)NC(=O)[C@H](CCC(=O)O)NC(=O)[C@H](CCC(=O)O)NC(=O)[C@H](Cc1ccc2ccccc2c1)NC(=O)[C@H]1CC[C@H](CNC(=O)CN2CCN(CC(=O)O)CCN(CC(=O)O)CCN(CC(=O)O)CC2)CC1)C(=O)O)C(=O)O` [[^68Ga]Ga-PS6, metal not drawn] ({DOTA-Trx}-[2Nal]EEE-EuK): in the series “in vivo”, the tissue to tissue ratio at 1 h was 0.44 ± 0.15 and the tissue to tissue ratio at 2 h was 2.15 ± 0.22.
